Molecular target: T1, Mitogen-activated protein kinase kinase kinase 5 (Homo sapiens, UniProt Q99683)
T1 sequence (Q99683 whole entry): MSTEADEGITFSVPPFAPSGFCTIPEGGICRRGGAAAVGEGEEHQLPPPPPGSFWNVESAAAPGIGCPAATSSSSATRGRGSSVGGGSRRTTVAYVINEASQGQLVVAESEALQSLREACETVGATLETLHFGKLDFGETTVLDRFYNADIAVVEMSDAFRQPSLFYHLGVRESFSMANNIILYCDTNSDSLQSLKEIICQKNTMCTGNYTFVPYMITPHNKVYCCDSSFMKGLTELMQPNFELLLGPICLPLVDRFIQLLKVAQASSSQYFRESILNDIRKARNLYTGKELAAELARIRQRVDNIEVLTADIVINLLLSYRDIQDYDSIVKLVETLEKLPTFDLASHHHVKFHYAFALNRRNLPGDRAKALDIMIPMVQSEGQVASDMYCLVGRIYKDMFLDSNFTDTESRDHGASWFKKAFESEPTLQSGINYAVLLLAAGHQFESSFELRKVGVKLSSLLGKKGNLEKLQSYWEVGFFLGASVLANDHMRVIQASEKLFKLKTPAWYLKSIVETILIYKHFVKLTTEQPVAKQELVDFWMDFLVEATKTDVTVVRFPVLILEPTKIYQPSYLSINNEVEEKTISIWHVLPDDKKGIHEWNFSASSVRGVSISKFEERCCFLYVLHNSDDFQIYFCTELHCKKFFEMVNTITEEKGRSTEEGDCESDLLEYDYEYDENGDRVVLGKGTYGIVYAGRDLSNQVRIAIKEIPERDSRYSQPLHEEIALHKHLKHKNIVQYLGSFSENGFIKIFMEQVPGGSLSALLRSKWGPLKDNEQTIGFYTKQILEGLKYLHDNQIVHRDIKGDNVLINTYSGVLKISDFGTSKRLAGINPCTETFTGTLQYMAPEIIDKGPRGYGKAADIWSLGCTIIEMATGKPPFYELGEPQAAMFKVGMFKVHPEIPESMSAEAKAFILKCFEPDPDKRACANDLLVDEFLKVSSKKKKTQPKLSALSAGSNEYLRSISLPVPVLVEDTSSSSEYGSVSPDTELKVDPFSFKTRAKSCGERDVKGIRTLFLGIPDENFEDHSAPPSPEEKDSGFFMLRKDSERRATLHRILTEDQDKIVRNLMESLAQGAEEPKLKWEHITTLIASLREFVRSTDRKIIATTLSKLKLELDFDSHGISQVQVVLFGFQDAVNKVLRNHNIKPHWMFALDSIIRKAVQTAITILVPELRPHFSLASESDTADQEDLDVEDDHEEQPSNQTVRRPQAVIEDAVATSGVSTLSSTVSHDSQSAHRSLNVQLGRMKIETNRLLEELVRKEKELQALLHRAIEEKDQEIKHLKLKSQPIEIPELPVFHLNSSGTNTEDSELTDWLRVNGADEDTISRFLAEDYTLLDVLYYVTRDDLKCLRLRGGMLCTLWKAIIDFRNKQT
Assay: HTRF KinEASE Assay: ASK1 was purchased from Thermofisher (Catalogue #PV4011), ATP was purchased from Sigma (Catalogue #A7699), HTRF® KinEASE™ Assay System was obtained from Cisbio (Bedford, Mass.). ½ Area plate was purchased from Perkin Elmer (Catalogue ##6005560). HTRF® KinEASE™-STK is a generic method for measuring serine/threonine kinase activities using a time-resolved fluorescence resonance energy transfer (TR-FRET) immunoassay. The IC50 value for each compound was determined in the presence of compound (various concentration from 0 to 10 μM) and a fixed amount of ATP and peptide substrates. The test compound, 1 uM STK3 peptide substrate, and 5 nM of ASK1 kinase are incubated with kinase reaction buffer containing 50 mM HEPES pH 7.5, 0.01% BRIJ-35, 10 mM MgCl2, and 1 mM EGTA for 30 minutes. 100 uM ATP is added to start kinase reaction and incubated for 3 hours. The STK3-antibody labeled with Eu3+-Cryptate and 125 nM streptavidin-XL665 are mixed in a single addition with stop reagents provided by the Cisbio kit used to stop the kinase reaction. Fluorescence is detected using an Envision Multilabeled 2014 reader from PerkinElmer. The Fluorescence is measured at 615 nm (Cryptate) and 665 nm (XL665) and a ratio of 665 nm/615 nm is calculated for each well. The resulting TR-FRET is proportional to the phosphorylation level. Staurosporine was used as the positive control.

## Cc1cc(F)c(C(=O)Nc2cccc(-n3cnnc3)n2)cc1-n1cnc(C2CC2)c1
  IC50: > 1 µM

From ChEMBL document CHEMBL5728427, “Apoptosis signal-regulating kinase 1 inhibitors and methods of use thereof” (2021)
